Assay results taken from patent US6162810A, “Inadone and tetralone compounds for inhibiting cell proliferation” (The Regents of the University of California, priority 1998, dated 2000).

The molecules below were run on proliferating cells (assay: Ability of further compounds to kill proliferating cells (average)). Settings: average TC50, proliferating cells; read-out: TC50 (the source's name).
Format: cell-based
Protocol: (§1) (B) Similarly, compounds of the invention were tested for their ability to kill CEM WT, CEM AB9228, MOLT-4, Jurkat, NALL-1, WI-L2, K562, and HL-60 cells.
(C) Proceeding as described above, further compounds were tested for their ability to kill proliferating cells.

For COc1cc(C=C2Cc3cc(C)c(C)cc3C2=O)cc(OC)c1 [5,6-dimethyl-2-(3',5'-dimethoxyphenylmethylene)-1-indanone], which CC50 is on record?
The CC50 was > 50 µM.

How did the CC50 turn out when COc1ccccc1C=C1CCc2cc(OC)c(OC)cc2C1=O [6,7-dimethoxy-2-(2'-methoxyphenylmethylene)-1-tetralone] was run?
The CC50 was > 50 µM.

How did the CC50 turn out when COc1cc2c(cc1OC)C(=O)C(=Cc1cc(C(F)(F)F)cc(C(F)(F)F)c1)C2 [5,6-dimethoxy-2-(3',5'-ditrifluoromethylphenylmethylene)-1-indanone] was run?
The CC50 was > 50 µM.

For COC(=O)C(=O)Nc1c(OC)c(OC)cc2c1C(=O)C(=Cc1cc(C)c(O)c(C)c1)C2 [5,6-dimethoxy-7-methoxalylamino-2-(3',5'-dimethyl-4'-hydroxyphenylmethylene)-1-indanone], which CC50 is on record?
The CC50 was 0.2 µM.

With COc1cc2c(c(NC(=O)C(=O)O)c1OC)C(=O)C(=Cc1cc(C)c(O)c(C)c1)C2 [5,6-dimethoxy-7-oxalylamino-2-(3',5'-dimethyl-4'-hydroxyphenylmethylene)-1-indanone] as the molecule, how does the CC50 read?
Its CC50 is 0.15 µM.

COc1cc2c(cc1OC)C(=O)C(=Cc1c(OC)cccc1OC)CC2 [6,7-dimethoxy-2-(2',6'-dimethoxyphenylmethylene)-1-tetralone] was tested. Which CC50 did it give?
The CC50 was > 50 µM.

With COc1cc2c(cc1OC)C(=O)C(=Cc1cccc([N+](=O)[O-])c1)CC2 [6,7-dimethoxy-2-(3'-nitrophenylmethylene)-1-tetralone] as the molecule, how does the CC50 read?
Its CC50 is 9 µM.

With COc1ccc(C=C2CCc3cc(OC)c(OC)cc3C2=O)cc1 [6,7-dimethoxy-2-(4'-methoxyphenylmethylene)-1-tetralone] as the molecule, how does the CC50 read?
The CC50 was > 50 µM.

With COc1cc2c(cc1OC)C(=O)C(=Cc1cc(OC)c(O)c(OC)c1)CC2 [6,7-dimethoxy-2-(3',5'-dimethoxy-4'-hydroxyphenylmethylene)-1-tetralone] as the molecule, how does the CC50 read?
The CC50 was 6 µM.

Which CC50 does the source give for COc1cc2c(cc1OC)C(=O)C(=Cc1cc(F)cc(F)c1)C2 [5,6-dimethoxy-2-(3',5'-difluorophenylmethylene)-1-indanone] here?
Its CC50 is 19 µM.

With COc1cc2c(cc1OC)C(=O)C(=Cc1cc(C)c([N+](=O)[O-])c(C)c1)C2 [5,6-dimethoxy-2-(3',5'-dimethyl-4'-nitrophenylmethylene)-1-indanone] as the molecule, how does the CC50 read?
Its CC50 is > 50 µM.

Which CC50 does the source give for COc1cc2c(c([N+](=O)[O-])c1OC)C(=O)/C(=C/c1cc(C)c(O)c(C)c1)C2 [5,6-dimethoxy-7-nitro-2-(3',5'-dimethyl-4'-hydroxyphenylmethylene)-1-indanone] here?
The CC50 was > 50 µM.

Which CC50 does the source give for COc1cc(C=C2Cc3cc(OC)ccc3C2=O)cc(OC)c1 [5-methoxy-2-(3',5'-dimethoxyphenylmethylene)-1-indanone] here?
The CC50 was > 50 µM.

How did the CC50 turn out when COc1cc2c(cc1OC)C(=O)C(=Cc1cc(OC)c(O)c(OC)c1)C2 [5,6-dimethoxy-2-(3',5'-dimethoxy-4'-hydroxyphenylmethylene)-1-indanone] was run?
The CC50 was > 50 µM.

How did the CC50 turn out when COc1cc2c(cc1OC)C(=O)C(=Cc1cc(Cl)cc(Cl)c1)CC2 [6,7-dimethoxy-2-(3',5'-dichlorophenylmethylene)-1-tetralone] was run?
Its CC50 is 7 µM.

COc1ccc(C=C2CCc3cc(OC)c(OC)cc3C2=O)c(OC)c1 [6,7-dimethoxy-2-(2',4'-dimethoxyphenylmethylene)-1-tetralone] was tested. Which CC50 did it give?
The CC50 was > 50 µM.

For COc1cc2c(cc1OC)C(=O)C(=Cc1cc(C)c(OC(=O)CCC(=O)O)c(C)c1)C2 [5,6-dimethoxy-2-(3',5'-dimethyl-4'-succinophenylmethylene)-1-indanone], which CC50 is on record?
The CC50 was 0.07 µM.

For COc1cc2c(cc1OC)C(=O)C(=Cc1cccc(Cl)c1)CC2 [6,7-dimethoxy-2-(3'-chlorophenylmethylene)-1-tetralone], which CC50 is on record?
The CC50 was 9 µM.

How did the CC50 turn out when COc1cc2c(cc1OC)C(=O)C(=Cc1cc(I)cc(I)c1O)C2 [5,6-dimethoxy-2-(2'-hydroxy-3',5'-diiodophenylmethylene)-1-indanone] was run?
The CC50 was 12.5 µM.

Which CC50 does the source give for COc1cc2c(cc1OC)C(=O)C(=Cc1cc(C)c(OC(=O)CP(=O)(O)O)c(C)c1)C2 [5,6-dimethoxy-2-(3',5'-dimethyl-4'-phosphonoacetoxyphenylmethylene)-1-indanone] here?
Its CC50 is 11.5 µM.

COc1cc2c(cc1OC)C(=O)C(=Cc1cccc(Cl)c1)C2 [5,6-dimethoxy-2-(3'-chlorophenylmethylene)-1-indanone] was tested. Which CC50 did it give?
Its CC50 is 2.5 µM.

How did the CC50 turn out when COc1cccc(C=C2CCc3cc(OC)c(OC)cc3C2=O)c1 [6,7-dimethoxy-2-(3'-methoxyphenylmethylene)-1-tetralone] was run?
The CC50 was 5 µM.

With COc1cc2c(cc1OC)C(=O)C(=Cc1cc(C)c(OC(C)=O)c(C)c1)C2 [5,6-dimethoxy-2-(3',5'-dimethyl-4'-acetoxyphenylmethylene)-1-indanone] as the molecule, how does the CC50 read?
The CC50 was 0.4 µM.

How did the CC50 turn out when O=C1C(=Cc2cc(Cl)cc(Cl)c2)Cc2ccccc21 [2-(3',5'-dichlorophenylmethylene)-1-indanone] was run?
Its CC50 is 30 µM.

For COc1cc2c(c(NC(=O)C=O)c1OC)C(=O)C(=Cc1cc(C)c(O)c(C)c1)C2 [5,6-dimethoxy-7-(NHCOCOH)-2-(3',5'-dimethyl-4'-hydroxyphenylmethylene)-1-indanone], which CC50 is on record?
Its CC50 is 0.0015 µM.

For COc1cc2c(c(N)c1OC)C(=O)C(=Cc1cc(C)c(O)c(C)c1)C2 [5,6-dimethoxy-7-amino-2-(3',5'-dimethyl-4'-hydroxyphenylmethylene)-1-indanone], which CC50 is on record?
Its CC50 is 0.0008 µM.

Same assay, conditions: read-out: TC50

With COc1cc2c(cc1OC)C(=O)/C(=C/c1cc(C)c(O)c(C)c1)C2 [5,6-dimethoxy-2-(3',5'-dimethyl-4'-hydroxyphenylmethylene)-1-indanone] as the molecule, how does the CC50 read?
Its CC50 is 0.0065 µM.

What follows are molecules tested on CEM WT, CEM AB9228, MOLT-4, Jurkat, NALL-1, WI-L2, K562, and HL-60 cells (assay: Cytotoxicity to various proliferating cell lines (average)). Settings: Homo sapiens, average TC50 over various proliferating cell lines; read-out: TC50 (the source's name).
Format: cell-based, human
Protocol: as §1

Which CC50 does the source give for COc1cc(O)c(C=C2CCc3cc(OC)c(OC)cc3C2=O)c(OC)c1 [6,7-dimethoxy-2-(2',4'-dimethoxy-6'-hydroxyphenylmethylene)-1-tetralone] here?
The CC50 was 10 µM.

How did the CC50 turn out when COc1cc2c(cc1OC)C(=O)C(=Cc1cc(OC(F)(F)F)cc(OC(F)(F)F)c1)C2 [5,6-dimethoxy-2-(3',5'-ditrifluoromethoxyphenylmethylene)-1-indanone] was run?
Its CC50 is > 100 µM.

With COc1cc2c(c(NC(=O)C(=O)O)c1OC)C(=O)C(=Cc1cc(C)c(O)c(C)c1)C2 [5,6-dimethoxy-7-oxalylamino-2-(3',5'-dimethyl-4'-hydroxyphenylmethylene)-1-indanone] as the molecule, how does the CC50 read?
The CC50 was 0.004 µM.

For COc1cc2c(cc1OC)C(=O)C(=Cc1ccc(N)cc1)CC2 [6,7-dimethoxy-2-(4'-aminophenylmethylene)-1-tetralone], which CC50 is on record?
The CC50 was > 50 µM.

For COc1cc2c(cc1OC)C(=O)C(=Cc1cc(C)ccc1C)CC2 [6,7-dimethoxy-2-(2',5'-dimethylphenylmethylene)-1-tetralone], which CC50 is on record?
The CC50 was 5 µM.

How did the CC50 turn out when COc1ccc(C=C2CCc3cc(OC)c(OC)cc3C2=O)cc1 [6,7-dimethoxy-2-(4'-methoxyphenylmethylene)-1-tetralone] was run?
The CC50 was > 50 µM.

Which CC50 does the source give for COc1cc2c(cc1OC)C(=O)C(=Cc1cc(OC)c(OC)c(OC)c1)CC2 [6,7-dimethoxy-2-(3',4',5'-trimethoxyphenylmethylene)-1-tetralone] here?
The CC50 was > 50 µM.

With COc1cc2c(cc1OC)C(=O)C(=Cc1cc(F)cc(F)c1)C2 [5,6-dimethoxy-2-(3',5'-difluorophenylmethylene)-1-indanone] as the molecule, how does the CC50 read?
Its CC50 is 19 µM.

How did the CC50 turn out when COc1cc2c(cc1OC)C(=O)C(=Cc1cc(C)c(OC(=O)CCC(=O)O)c(C)c1)C2 [5,6-dimethoxy-2-(3',5'-dimethyl-4'-O-succinylphenylmethylene)-1-indanone] was run?
Its CC50 is 1 µM.

With COc1cccc2c1C(=O)C(=Cc1cc(C)c(O)c(C)c1)C2 [7-methoxy-2-(3',5'-dimethyl-4'-hydroxyphenylmethylene)-1-indanone] as the molecule, how does the CC50 read?
The CC50 was 51 µM.

For COc1cc2c(cc1OC)C(=O)C(=Cc1c(O)cc(I)cc1I)C2 [5,6-dimethoxy-2-(2'-hydroxy-4',6'-diiodophenylmethylene)-1-indanone], which CC50 is on record?
The CC50 was 18 µM.

How did the CC50 turn out when COc1cc2c(c([N+](=O)[O-])c1OC)C(=O)/C(=C/c1cc(C)c(O)c(C)c1)C2 [5,6-dimethoxy-7-nitro-2-(3',5'-dimethyl-4'-hydroxyphenylmethylene)-1-indanone] was run?
The CC50 was > 50 µM.

Which CC50 does the source give for COc1cc2c(cc1OC)C(=O)C(=Cc1cc(OC)c(O)c(OC)c1)C2 [5,6-dimethoxy-2-(3',5'-dimethoxy-4'-hydroxyphenylmethylene)-1-indanone] here?
Its CC50 is > 50 µM.

COc1ccc2c(c1)C(=O)C(=Cc1cc(C)c(O)c(C)c1)C2 [6-methoxy-2-(3',5'-dimethyl-4'-hydroxyphenylmethylene)-1-indanone] was tested. Which CC50 did it give?
Its CC50 is > 50 µM.

O=C1C(=Cc2cc(O)c(O)c(O)c2)CCc2cc(O)c(O)cc21 [6,7-dihydroxy-2-(3',4',5'-trihydroxyphenylmethylene)-1-tetralone] was tested. Which CC50 did it give?
Its CC50 is 43 µM.

How did the CC50 turn out when COc1cc2c(cc1OC)C(=O)C(=Cc1cc(C)cc(C)c1)CC2 [6,7-dimethoxy-2-(3',5'-dimethylphenylmethylene)-1-tetralone] was run?
The CC50 was 4 µM.

Which CC50 does the source give for COc1cc2c(cc1OC)C(=O)C(=Cc1c(C)cccc1C)CC2 [6,7-dimethoxy-2-(2',6'-dimethylphenylmethylene)-1-tetralone] here?
Its CC50 is > 50 µM.

For COc1cc2c(cc1OC)C(=O)C(=Cc1ccc(O)c(C(=O)O)c1)CC2 [6,7-dimethoxy-2-(3'-hydrocarboxy-4'-hydroxyphenylmethylene)-1-tetralone], which CC50 is on record?
The CC50 was > 50 µM.

O=C1C(=Cc2cc(Cl)cc(Cl)c2)Cc2cc(O)c(O)cc21 [5,6-dihydroxy-2-(3',5'-dichlorophenylmethylene)-1-indanone] was tested. Which CC50 did it give?
The CC50 was 30 µM.

Which CC50 does the source give for COc1cc2c(cc1OC)C(=O)C(=Cc1cccc(Cl)c1)C2 [5,6-dimethoxy-2-(3'-chlorophenylmethylene)-1-indanone] here?
Its CC50 is > 50 µM.

With COc1ccc(OC)c(C=C2CCc3cc(OC)c(OC)cc3C2=O)c1 [6,7-dimethoxy-2-(2',5'-dimethoxyphenylmethylene)-1-tetralone] as the molecule, how does the CC50 read?
The CC50 was 11 µM.

COc1cc2c(c(N)c1OC)C(=O)C(=Cc1cc(C)c(O)c(C)c1)C2 [5,6-dimethoxy-7-amino-2-(3',5'-dimethyl-4'-hydroxyphenylmethylene)-1-indanone] was tested. Which CC50 did it give?
Its CC50 is 0.005 µM.

COc1cc2c(cc1OC)C(=O)C(=Cc1c(Cl)cc(-c3ccncc3)cc1Cl)C2 [5,6-dimethoxy-2-(2',6'-dichloro-4'-(pyridin-4-yl)phenylmethylene)-1-indanone] was tested. Which CC50 did it give?
Its CC50 is 40 µM.

COc1cc2c(cc1OC)C(=O)C(=CC1(O)CC(OC)CC(OC)C1)C2 (stereo not drawn) [5,6-dimethoxy-2-(3',5'-dimethoxy-1'-hydroxycyclohexylmethylene)-1-indanone] was tested. Which CC50 did it give?
The CC50 was 2 µM.

COc1cc(C=C2Cc3cc4c(cc3C2=O)OCO4)cc(OC)c1 [5,6-methylenedioxy-2-(3',5'-dimethoxyphenylmethylene)-1-indanone] was tested. Which CC50 did it give?
Its CC50 is > 50 µM.

How did the CC50 turn out when O=C1C(=Cc2cccc(O)c2O)CCc2cc(O)c(O)cc21 [6,7-dihydroxy-2-(2',3'-dihydroxyphenylmethylene)-1-tetralone] was run?
Its CC50 is > 50 µM.

Same assay, conditions: Homo sapiens, read-out: TC50

COc1cc2c(cc1OC)C(=O)/C(=C/c1cc(C)c(O)c(C)c1)C2 [5,6-dimethoxy-2-(3',5'-dimethyl-4'-hydroxyphenylmethylene)-1-indanone] was tested. Which CC50 did it give?
Its CC50 is 0.017 µM.

Same assay, conditions: average TC50 over various proliferating cell lines; read-out: TC50 (the source's name)

How did the CC50 turn out when “5,6-dimethoxy-2-(3',5'-dimethyl-4'-phosphonoacetylphenylmethylene)-1-indanone” was run?
The CC50 was 0.007 µM.

For COc1cc2c(cc1OC)C(=O)C(=Cc1cc(F)cc(F)c1)C2 [5,6-dimethoxy-2-(3',5'-difluorophenylmethylene)-1-indanone (], which CC50 is on record?
Its CC50 is 26 µM.

For “6,7-dimethoxy-2-(4'-(pyridine-N-oxide)phenylmethylene)-1-tetralone”, which CC50 is on record?
The CC50 was > 50 µM.
